Measurements from US12459918B2, “Isoquinolinone derivatives serving as rock protein kinase inhibitors and use thereof” (GUANGZHOU OCUSUN OPHTHALMIC BIOTECHNOLOGY CO., LTD., priority 2019, dated 2025).

Columns and labels:
[1] = test system: New Zealand rabbits with acute ocular hypertension; assay: Intraocular pressure reduction experiment in New Zealand rabbits with acute ocular hypertension, experiment operation 2; type: in vivo; details: for Intraocular pressure in the left eye: left eye (solvent, not modeled)
Description: Experimental Example 3. Intraocular Pressure Reduction Experiment in New Zealand Rabbits with Acute Ocular Hypertension
Acute ocular hypertension of rabbits were induced by anterior chamber injection of a viscoelastic agent and the intraocular pressure reduction action of compound 60 and compound 63 at different concentrations were explored by eye-drop administration.
Male New Zealand rabbits, aged 97-127 days, weighted 2.5-3.4 kg, purchased from PizhouDongfang Breeding Co. Ltd.
50 male New Zealand rabbits were randomly divided into 5 groups according to body weight, with 10 rabbits/per group Animals in 1-5 groups were injected with medical sodium hyaluronate gel in the anterior chamber of right eye in a single dose, 100 μL/eye, to induce ocular hypertension. In 5-15 minutes after modeling, the right eye was respectively dropped with a solvent, K-115 and test samples (compound 63 at different concentrations), the left eye was dropped with a solvent, the volume of the administration was all 50 μL/eye, and intraocular pressure in both eyes of the animals was measured before administration and in 2, 4, 6, 8 and 10 hours after administration, respectively.

[2] = test system: New Zealand rabbits with normal intraocular pressure; assay: Repeated eye-drop administration for 14 days, experiment operation 2: Day 1 intraocular pressure; type: in vivo; details: for Mean intraocular pressure of both eyes: saline in left, Day 1
Description: Experimental example 4. Experiment on reduction of intraocular pressure and ocular toxicity of New Zealand rabbits with normal intraocular pressure by repeated eye-drop administration for 14 days
The intraocular pressure reduction action and the potential ocular toxicity of compound 63 were explored by 14 days of repeated eye-drop administration in rabbits with normal intraocular pressure.
Male New Zealand rabbits, aged 97-127 days, weighted 2.6-3.5 kg, purchased from PizhouDongfang Breeding Co. Ltd.
42 male New Zealand rabbits were randomly divided into 7 groups, with 6 rabbits per group. Animals were randomly divided according to body weight Animals in 1-7 groups were eye-dropped with normal saline in the left eye and with solvent/control sample/test sample in the right eye respectively by a volume of 50 μL/eye, once per day for 14 consecutive days, and the day of administration was recorded as Day 1. The intraocular pressure of the animals was measured before Day 1 administration and in 1, 2, 4, 6, 8 and 10 hours after Day 1 administration, respectively (Table 8).

[3] = Toxicokinetics experiment: active compounds in plasma after 14 days of continuous administration; type: in vivo, New Zealand rabbits; details: for Concentration of active compounds in plasma, Group 1 / Concentration of active compounds in plasma, Group 2: 8.0 mg/mL eye-drop, after 14 days of continuous administration
Description: Experimental Example 5. Toxicokinetics Experiment
The production rate of active drug ingredients and the exposure amount of active drug ingredients of the compound in plasma were detected after 14 days of continuous administration.
Male New Zealand rabbits, aged 3-6 months, weighted 2.0-5.0 kg, purchased from PizhouDongfang Breeding Co. Ltd.
After 14 days of continuous administration, blood samples from the group administrated with compound 63 (8.0 mg/mL) were collected at 0 hour (before administration) and in 0.5, 1, 2, 4, 8, and 24 hours after administration on Days 14-15. About 0.8 mL of whole blood was collected from the auricular artery or the saphenous vein of the hind limb (or other appropriate sites) of toxicokinetics experiment animals, and was placed in labeled collection tubes using ethylenediaminetetraacetic acid dipotassium (K2EDTA) as an anticoagulant. Plasma was obtained by centrifugation for 10 minutes at 3000 rpm and under the condition of 2° C. to 8° C. in 60 minutes after blood collection. All samples were quantitatively detected for the content of the administered compounds in plasma of the experimental animals by liquid chromatography-coupled mass spectrometry (LC-MS) and mass spectrometry (MS) technology.

[4] = Time 0.00 hour (before administration)

Cc1ccc(C(=O)OCn2cc(C)c3c(S(=O)(=O)N4CC[C@H](N)C4)cccc3c2=O)c(C)c1 [Compound 63]
Intraocular pressure in the left eye ([1]; 0.25 mg/mL group, 2 hours after administration): 6.07 mmHg
Intraocular pressure in the left eye ([1]; 0.25 mg/mL group, 4 hours after administration): 6.60 mmHg
Intraocular pressure in the left eye ([1]; 0.25 mg/mL group, 6 hours after administration): 9.10 mmHg
Intraocular pressure in the left eye ([1]; 0.25 mg/mL group, 8 hours after administration): 11.50 mmHg
Intraocular pressure in the left eye ([1]; 0.25 mg/mL group, 10 hours after administration): 12.43 mmHg
Intraocular pressure in the left eye ([1]; 0.25 mg/mL group, before administration): 10.53 mmHg
Intraocular pressure in the right eye ([1]; 0.25 mg/mL in right eye (induced ocular hypertension), 2 hours after administration): 8.47 mmHg
Intraocular pressure in the right eye ([1]; 0.25 mg/mL in right eye (induced ocular hypertension), 4 hours after administration): 8.60 mmHg
Intraocular pressure in the right eye ([1]; 0.25 mg/mL in right eye (induced ocular hypertension), 6 hours after administration): 11.20 mmHg
Intraocular pressure in the right eye ([1]; 0.25 mg/mL in right eye (induced ocular hypertension), 8 hours after administration): 13.37 mmHg
Intraocular pressure in the right eye ([1]; 0.25 mg/mL in right eye (induced ocular hypertension), 10 hours after administration): 13.10 mmHg
Intraocular pressure in the right eye ([1]; 0.25 mg/mL in right eye (induced ocular hypertension), before administration): 11.43 mmHg
Intraocular pressure in the left eye ([1]; 2.0 mg/mL group, 2 hours after administration): 6.60 mmHg
Intraocular pressure in the left eye ([1]; 2.0 mg/mL group, 4 hours after administration): 7.04 mmHg
Intraocular pressure in the left eye ([1]; 2.0 mg/mL group, 6 hours after administration): 11.23 mmHg
Intraocular pressure in the left eye ([1]; 2.0 mg/mL group, 8 hours after administration): 12.84 mmHg
Intraocular pressure in the left eye ([1]; 2.0 mg/mL group, 10 hours after administration): 13.10 mmHg
Intraocular pressure in the left eye ([1]; 2.0 mg/mL group, before administration): 11.27 mmHg
Intraocular pressure in the right eye ([1]; 2.0 mg/mL in right eye (induced ocular hypertension), 2 hours after administration): 8.52 mmHg
Intraocular pressure in the right eye ([1]; 2.0 mg/mL in right eye (induced ocular hypertension), 4 hours after administration): 11.56 mmHg
Intraocular pressure in the right eye ([1]; 2.0 mg/mL in right eye (induced ocular hypertension), 6 hours after administration): 13.81 mmHg
Intraocular pressure in the right eye ([1]; 2.0 mg/mL in right eye (induced ocular hypertension), 8 hours after administration): 12.96 mmHg
Intraocular pressure in the right eye ([1]; 2.0 mg/mL in right eye (induced ocular hypertension), 10 hours after administration): 11.96 mmHg
Intraocular pressure in the right eye ([1]; 2.0 mg/mL in right eye (induced ocular hypertension), before administration): 11.23 mmHg
Intraocular pressure in the left eye ([1]; 8.0 mg/mL group, 2 hours after administration): 5.93 mmHg
Intraocular pressure in the left eye ([1]; 8.0 mg/mL group, 4 hours after administration): 6.43 mmHg
Intraocular pressure in the left eye ([1]; 8.0 mg/mL group, 6 hours after administration): 10.10 mmHg
Intraocular pressure in the left eye ([1]; 8.0 mg/mL group, 8 hours after administration): 11.87 mmHg
Intraocular pressure in the left eye ([1]; 8.0 mg/mL group, 10 hours after administration): 13.19 mmHg
Intraocular pressure in the left eye ([1]; 8.0 mg/mL group, before administration): 11.20 mmHg
Intraocular pressure in the right eye ([1]; 8.0 mg/mL in right eye (induced ocular hypertension), 2 hours after administration): 7.40 mmHg
Intraocular pressure in the right eye ([1]; 8.0 mg/mL in right eye (induced ocular hypertension), 4 hours after administration): 7.97 mmHg
Intraocular pressure in the right eye ([1]; 8.0 mg/mL in right eye (induced ocular hypertension), 6 hours after administration): 8.84 mmHg
Intraocular pressure in the right eye ([1]; 8.0 mg/mL in right eye (induced ocular hypertension), 8 hours after administration): 8.60 mmHg
Intraocular pressure in the right eye ([1]; 8.0 mg/mL in right eye (induced ocular hypertension), 10 hours after administration): 8.78 mmHg
Intraocular pressure in the right eye ([1]; 8.0 mg/mL in right eye (induced ocular hypertension), before administration): 11.53 mmHg
Mean intraocular pressure of both eyes ([2]; 0.25 mg/mL in right eye, 1 hour after administration): 6.22 mmHg
Mean intraocular pressure of both eyes ([2]; 0.25 mg/mL in right eye, 2 hours after administration): 6.17 mmHg
Mean intraocular pressure of both eyes ([2]; 0.25 mg/mL in right eye, 4 hours after administration): 6.67 mmHg
Mean intraocular pressure of both eyes ([2]; 0.25 mg/mL in right eye, 6 hours after administration): 8.06 mmHg
Mean intraocular pressure of both eyes ([2]; 0.25 mg/mL in right eye, 8 hours after administration): 9.72 mmHg
Mean intraocular pressure of both eyes ([2]; 0.25 mg/mL in right eye, 10 hours after administration): 10.95 mmHg
Mean intraocular pressure of both eyes ([2]; 0.25 mg/mL in right eye, before administration): 9.84 mmHg
Mean intraocular pressure of both eyes ([2]; 0.5 mg/mL in right eye, 1 hour after administration): 5.39 mmHg
Mean intraocular pressure of both eyes ([2]; 0.5 mg/mL in right eye, 2 hours after administration): 5.50 mmHg
Mean intraocular pressure of both eyes ([2]; 0.5 mg/mL in right eye, 4 hours after administration): 6.95 mmHg
Mean intraocular pressure of both eyes ([2]; 0.5 mg/mL in right eye, 6 hours after administration): 8.94 mmHg
Mean intraocular pressure of both eyes ([2]; 0.5 mg/mL in right eye, 8 hours after administration): 9.89 mmHg
Mean intraocular pressure of both eyes ([2]; 0.5 mg/mL in right eye, 10 hours after administration): 11.56 mmHg
Mean intraocular pressure of both eyes ([2]; 0.5 mg/mL in right eye, before administration): 9.22 mmHg
Mean intraocular pressure of both eyes ([2]; 1.0 mg/mL in right eye, 1 hour after administration): 5.56 mmHg
Mean intraocular pressure of both eyes ([2]; 1.0 mg/mL in right eye, 2 hours after administration): 5.39 mmHg
Mean intraocular pressure of both eyes ([2]; 1.0 mg/mL in right eye, 4 hours after administration): 6.67 mmHg
Mean intraocular pressure of both eyes ([2]; 1.0 mg/mL in right eye, 6 hours after administration): 7.33 mmHg
Mean intraocular pressure of both eyes ([2]; 1.0 mg/mL in right eye, 8 hours after administration): 10.50 mmHg
Mean intraocular pressure of both eyes ([2]; 1.0 mg/mL in right eye, 10 hours after administration): 10.89 mmHg
Mean intraocular pressure of both eyes ([2]; 1.0 mg/mL in right eye, before administration): 9.17 mmHg
Mean intraocular pressure of both eyes ([2]; 2.0 mg/mL in right eye, 1 hour after administration): 8.11 mmHg
Mean intraocular pressure of both eyes ([2]; 2.0 mg/mL in right eye, 2 hours after administration): 5.84 mmHg
Mean intraocular pressure of both eyes ([2]; 2.0 mg/mL in right eye, 4 hours after administration): 6.06 mmHg
Mean intraocular pressure of both eyes ([2]; 2.0 mg/mL in right eye, 6 hours after administration): 7.11 mmHg
Mean intraocular pressure of both eyes ([2]; 2.0 mg/mL in right eye, 8 hours after administration): 9.00 mmHg
Mean intraocular pressure of both eyes ([2]; 2.0 mg/mL in right eye, 10 hours after administration): 10.05 mmHg
Mean intraocular pressure of both eyes ([2]; 2.0 mg/mL in right eye, before administration): 9.72 mmHg
Mean intraocular pressure of both eyes ([2]; 4 mg/mL in right eye, 1 hour after administration): 6.61 mmHg
Mean intraocular pressure of both eyes ([2]; 4 mg/mL in right eye, 2 hours after administration): 5.84 mmHg
Mean intraocular pressure of both eyes ([2]; 4 mg/mL in right eye, 4 hours after administration): 5.72 mmHg
Mean intraocular pressure of both eyes ([2]; 4 mg/mL in right eye, 6 hours after administration): 6.61 mmHg
Mean intraocular pressure of both eyes ([2]; 4 mg/mL in right eye, 8 hours after administration): 8.39 mmHg
Mean intraocular pressure of both eyes ([2]; 4 mg/mL in right eye, 10 hours after administration): 10.67 mmHg
Mean intraocular pressure of both eyes ([2]; 4 mg/mL in right eye, before administration): 10.00 mmHg
Efficacy of a single dose (highest hypotensive effect and action duration) ([2]; all test doses (0.25-4.0 mg/mL), compared with K-115): superior efficacy
Concentration of active compounds in plasma, Group 1 [3, 4]: BQL
Concentration of active compounds in plasma, Group 2 [3, 4]: BQL
Concentration of active compounds in plasma, Group 1 ([3]; Time 8.00 hour): BQL
Concentration of active compounds in plasma, Group 2 ([3]; Time 8.00 hour): BQL
Concentration of active compounds in plasma, Group 1 ([3]; Time 24.0 hour): BQL
Concentration of active compounds in plasma, Group 2 ([3]; Time 24.0 hour): BQL
Metabolite concentration in plasma ([3]; 8 hours after administration, high dose of 8 mg/mL): below the detection limit
